Laboratory results as given in the supplement of paper PMC10307832.

Assays:
Assay in all cases: relative viability (nuclei count vs DMSO), 5 days (fraction); higher = more cells survive
[1] = tested on: NCI-H441
Procedure, shortened: (§1)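 Cells from lung cancer lines were seeded into 1536-well plates and, one day later, dosed by pin tool. Treatments were either a single drug or a fixed dose of an anchor drug with five library-drug doses (not always all listed) in √10 steps. After 5 days, nuclei were stained in a one-step fixation (final 0.05% Triton X-100, 1% formaldehyde, 1 ug/ml Hoechst) and counted on 4× images, and relative viability is the treated-to-vehicle nuclei ratio, as the median of duplicate plates.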

[2] = tested on: NCI-H647
Procedure, shortened: as §1

[3] = tested on: NCI-H460
Procedure, shortened: as §1

[4] = tested on: NCI-H596
Procedure, shortened: as §1

[5] = tested on: PC-14
Procedure, shortened: as §1

[6] = tested on: NCI-H1437
Procedure, shortened: as §1

[7] = tested on: ABC-1
Procedure, shortened: as §1

[8] = tested on: NCI-H1755
Procedure, shortened: as §1

[9] = tested on: NCI-H23
Procedure, shortened: as §1

[10] = tested on: NCI-H2023
Procedure, shortened: as §1

[11] = tested on: NCI-H3122
Procedure, shortened: as §1

[12] = tested on: NCI-H2009
Procedure, shortened: as §1

[13] = tested on: H3255
Procedure, shortened: as §1

[14] = tested on: UMC-11
Procedure, shortened: as §1

[15] = tested on: A-427
Procedure, shortened: as §1

[16] = tested on: PC-3 [JPC-3]
Procedure, shortened: as §1

[17] = tested on: NCI-H2347
Procedure, shortened: as §1

[18] = tested on: HCC-44
Procedure, shortened: as §1

[19] = tested on: NCI-H2405
Procedure, shortened: as §1

[20] = tested on: LCLC-103H
Procedure, shortened: as §1

[21] = tested on: LXF-289
Procedure, shortened: as §1

COCC1(CO)C(=O)C2CCN1CC2 (stereo not drawn) [PRIMA-1MET] + CCNC(=O)c1noc(-c2cc(C(C)C)c(O)cc2O)c1-c1ccc(CN2CCOCC2)cc1 [Luminespib] (partner 0.01 µM)
relative viability ([1]; first compound 0.2 µM): 0.437
relative viability ([1]; first compound 0.6325 µM): 0.334
relative viability ([1]; first compound 2 µM): 0.276
relative viability ([1]; first compound 6.325 µM): 0.365
relative viability ([1]; first compound 20 µM): 0.277
relative viability ([2]; first compound 0.2 µM): 0.181
relative viability ([2]; first compound 0.6325 µM): 0.224
relative viability ([2]; first compound 6.325 µM): 0.219
relative viability ([2]; first compound 20 µM): 0.0932
relative viability ([3]; first compound 0.2 µM): 0.0337
relative viability ([3]; first compound 0.6325 µM): 0.0272
relative viability ([3]; first compound 2 µM): 0.0258
relative viability ([3]; first compound 6.325 µM): 0.0312
relative viability ([3]; first compound 20 µM): 0.0174
relative viability ([4]; first compound 0.2 µM): 0.921
relative viability ([4]; first compound 0.6325 µM): 0.809
relative viability ([4]; first compound 2 µM): 0.858
relative viability ([4]; first compound 6.325 µM): 0.936
relative viability ([4]; first compound 20 µM): 0.109
relative viability ([5]; first compound 0.2 µM): 0.137
relative viability ([5]; first compound 0.6325 µM): 0.176
relative viability ([5]; first compound 2 µM): 0.169
relative viability ([5]; first compound 6.325 µM): 0.182
relative viability ([5]; first compound 20 µM): 0.129
relative viability ([6]; first compound 0.2 µM): 1.18
relative viability ([6]; first compound 0.6325 µM): 1.08
relative viability ([6]; first compound 2 µM): 1.09
relative viability ([6]; first compound 6.325 µM): 1.16
relative viability ([6]; first compound 20 µM): 1.01
relative viability ([7]; first compound 0.2 µM): 0.534
relative viability ([7]; first compound 0.6325 µM): 0.375
relative viability ([7]; first compound 2 µM): 0.393
relative viability ([7]; first compound 6.325 µM): 0.607
relative viability ([7]; first compound 20 µM): 0.171
relative viability ([8]; first compound 0.2 µM): 0.527
relative viability ([8]; first compound 0.6325 µM): 0.332
relative viability ([8]; first compound 2 µM): 0.404
relative viability ([8]; first compound 6.325 µM): 0.51
relative viability ([8]; first compound 20 µM): 0.454
relative viability ([9]; first compound 0.2 µM): 0.24
relative viability ([9]; first compound 0.6325 µM): 0.234
relative viability ([9]; first compound 2 µM): 0.22
relative viability ([9]; first compound 6.325 µM): 0.209
relative viability ([9]; first compound 20 µM): 0.0464
relative viability ([10]; first compound 0.2 µM): 0.957
relative viability ([10]; first compound 0.6325 µM): 0.85
relative viability ([10]; first compound 2 µM): 0.745
relative viability ([10]; first compound 6.325 µM): 0.685
relative viability ([10]; first compound 20 µM): 0.642
relative viability ([11]; first compound 0.2 µM): 0.0725
relative viability ([11]; first compound 0.6325 µM): 0.0963
relative viability ([11]; first compound 2 µM): 0.0983
relative viability ([11]; first compound 6.325 µM): 0.0835
relative viability ([11]; first compound 20 µM): 0.0732
relative viability ([12]; first compound 0.2 µM): 0.981
relative viability ([12]; first compound 0.6325 µM): 0.97
relative viability ([12]; first compound 2 µM): 1.1
relative viability ([12]; first compound 6.325 µM): 1.04
relative viability ([12]; first compound 20 µM): 0.307
relative viability ([13]; first compound 0.2 µM): 0.933
relative viability ([13]; first compound 0.6325 µM): 0.813
relative viability ([13]; first compound 2 µM): 0.741
relative viability ([13]; first compound 6.325 µM): 0.868
relative viability ([13]; first compound 20 µM): 0.91
relative viability ([14]; first compound 0.2 µM): 1.06
relative viability ([14]; first compound 0.6325 µM): 0.818
relative viability ([14]; first compound 2 µM): 0.978
relative viability ([14]; first compound 6.325 µM): 0.988
relative viability ([14]; first compound 20 µM): 0.917
relative viability ([15]; first compound 0.2 µM): 1.19
relative viability ([15]; first compound 0.6325 µM): 0.717
relative viability ([15]; first compound 2 µM): 0.714
relative viability ([15]; first compound 6.325 µM): 0.763
relative viability ([15]; first compound 20 µM): 0.58
relative viability ([16]; first compound 0.2 µM): 0.849
relative viability ([16]; first compound 0.6325 µM): 0.649
relative viability ([16]; first compound 2 µM): 0.679
relative viability ([16]; first compound 6.325 µM): 0.731
relative viability ([16]; first compound 20 µM): 0.546
relative viability ([17]; first compound 0.2 µM): 0.262
relative viability ([17]; first compound 0.6325 µM): 0.403
relative viability ([17]; first compound 2 µM): 0.174
relative viability ([17]; first compound 6.325 µM): 0.386
relative viability ([17]; first compound 20 µM): 0.349
relative viability ([18]; first compound 0.2 µM): 1.36
relative viability ([18]; first compound 0.6325 µM): 0.964
relative viability ([18]; first compound 2 µM): 0.817
relative viability ([18]; first compound 6.325 µM): 1.14
relative viability ([18]; first compound 20 µM): 0.896
relative viability ([19]; first compound 0.2 µM): 0.65
relative viability ([19]; first compound 0.6325 µM): 0.598
relative viability ([19]; first compound 6.325 µM): 0.688
relative viability ([19]; first compound 20 µM): 0.249
relative viability ([20]; first compound 0.2 µM): 1.05
relative viability ([20]; first compound 0.6325 µM): 0.831
relative viability ([20]; first compound 2 µM): 0.892
relative viability ([20]; first compound 6.325 µM): 0.985
relative viability ([20]; first compound 20 µM): 0.307
relative viability ([21]; first compound 0.2 µM): 0.878
relative viability ([21]; first compound 0.6325 µM): 0.673
relative viability ([21]; first compound 2 µM): 0.74
relative viability ([21]; first compound 6.325 µM): 0.712
relative viability ([21]; first compound 20 µM): 0.624
